# Results taken from PubChem BioAssay (NCI).
#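 Results reflect a 48-hour exposure of cells in 96-well plates to compound at five concentrations. Here, GI50 denotes the concentration required for 50% inhibition of growth. TGI denotes the concentration required for complete inhibition of growth.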
# Assays:
# Test in all cases: NCI tumour cell line growth inhibition, 48 h
# 786-0 renal = tested on: 786-0 renal
# MALME-3M melanoma = tested on: MALME-3M melanoma
# SF-268 CNS = tested on: SF-268 CNS
# UACC-62 melanoma = tested on: UACC-62 melanoma
# MOLT-4 leukemia = tested on: MOLT-4 leukemia
# M14 melanoma = tested on: M14 melanoma
# NCI-H226 lung = tested on: NCI-H226 lung
# HOP-92 NSCLC = tested on: HOP-92 NSCLC
# MDA-MB-435 = tested on: MDA-MB-435
# RXF 393 renal = tested on: RXF 393 renal
# U251 CNS = tested on: U251 CNS
# SNB-19 CNS = tested on: SNB-19 CNS
# HL-60(TB) leukemia = tested on: HL-60(TB) leukemia
# IGROV1 ovarian = tested on: IGROV1 ovarian
# A498 renal = tested on: A498 renal
# PC-3 prostate = tested on: PC-3 prostate
# RPMI-8226 leukemia = tested on: RPMI-8226 leukemia
# SK-MEL-5 melanoma = tested on: SK-MEL-5 melanoma
# OVCAR-4 ovarian = tested on: OVCAR-4 ovarian
# SF-295 CNS = tested on: SF-295 CNS
# TK-10 renal = tested on: TK-10 renal
# CCRF-CEM leukemia = tested on: CCRF-CEM leukemia
# NCI-H460 lung = tested on: NCI-H460 lung
# OVCAR-3 ovarian = tested on: OVCAR-3 ovarian
# SF-539 CNS = tested on: SF-539 CNS
# SK-OV-3 ovarian = tested on: SK-OV-3 ovarian
# HT29 colon = tested on: HT29 colon
# T-47D breast = tested on: T-47D breast
# SN12C renal = tested on: SN12C renal
# MCF7 breast = tested on: MCF7 breast
# K-562 leukemia = tested on: K-562 leukemia
# HCC-2998 colon = tested on: HCC-2998 colon
# DU-145 prostate = tested on: DU-145 prostate
# HOP-62 NSCLC = tested on: HOP-62 NSCLC
# HS 578T breast = tested on: HS 578T breast
# NCI/ADR-RES ovarian = tested on: NCI/ADR-RES ovarian
# SK-MEL-2 melanoma = tested on: SK-MEL-2 melanoma
# CAKI-1 renal = tested on: CAKI-1 renal
# OVCAR-5 ovarian = tested on: OVCAR-5 ovarian
# BT-549 breast = tested on: BT-549 breast
# HCT-15 colon = tested on: HCT-15 colon
# A549 NSCLC = tested on: A549 NSCLC
# SW-620 colon = tested on: SW-620 colon
# UO-31 renal = tested on: UO-31 renal
# ACHN renal = tested on: ACHN renal
# LOX IMVI melanoma = tested on: LOX IMVI melanoma
# HCT-116 colon = tested on: HCT-116 colon
# EKVX NSCLC = tested on: EKVX NSCLC
# NCI-H522 lung = tested on: NCI-H522 lung
# SR leukemia = tested on: SR leukemia
# KM12 colon = tested on: KM12 colon
# SK-MEL-28 melanoma = tested on: SK-MEL-28 melanoma
# MDA-MB-231 breast = tested on: MDA-MB-231 breast
# SNB-75 CNS = tested on: SNB-75 CNS
# NCI-H23 lung = tested on: NCI-H23 lung
# COLO 205 colon = tested on: COLO 205 colon
# UACC-257 melanoma = tested on: UACC-257 melanoma
smiles,measurement,setting,value
CC(C)OC(=O)c1cc(NS(=O)(=O)c2ccc3ccccc3c2)cc(C(=O)OC(C)C)c1,GI50,786-0 renal,30.9 µM
same,TGI,786-0 renal,> 100 µM
same,GI50,MALME-3M melanoma,32.7 µM
same,TGI,MALME-3M melanoma,> 100 µM
same,GI50,SF-268 CNS,15.8 µM
same,TGI,SF-268 CNS,57.3 µM
same,GI50,UACC-62 melanoma,17 µM
same,TGI,UACC-62 melanoma,48.6 µM
same,GI50,MOLT-4 leukemia,22 µM
same,TGI,MOLT-4 leukemia,63.4 µM
same,GI50,M14 melanoma,17.6 µM
same,TGI,M14 melanoma,46.8 µM
same,GI50,NCI-H226 lung,26.8 µM
same,TGI,NCI-H226 lung,> 100 µM
same,GI50,HOP-92 NSCLC,24.9 µM
same,TGI,HOP-92 NSCLC,64.9 µM
same,GI50,MDA-MB-435,23.1 µM
same,TGI,MDA-MB-435,73.2 µM
same,GI50,RXF 393 renal,20.9 µM
same,TGI,RXF 393 renal,> 100 µM
same,GI50,U251 CNS,31.7 µM
same,TGI,U251 CNS,> 100 µM
same,GI50,SNB-19 CNS,33.5 µM
same,TGI,SNB-19 CNS,> 100 µM
same,GI50,HL-60(TB) leukemia,24.2 µM
same,TGI,HL-60(TB) leukemia,65.8 µM
same,GI50,IGROV1 ovarian,35.2 µM
same,TGI,IGROV1 ovarian,> 100 µM
same,GI50,A498 renal,17.2 µM
same,TGI,A498 renal,54.9 µM
same,GI50,PC-3 prostate,23.8 µM
same,TGI,PC-3 prostate,91.8 µM
same,GI50,RPMI-8226 leukemia,15.6 µM
same,TGI,RPMI-8226 leukemia,45.3 µM
same,GI50,SK-MEL-5 melanoma,16 µM
same,TGI,SK-MEL-5 melanoma,31.8 µM
same,GI50,OVCAR-4 ovarian,22 µM
same,TGI,OVCAR-4 ovarian,82.3 µM
same,GI50,SF-295 CNS,22.2 µM
same,TGI,SF-295 CNS,79.7 µM
same,GI50,TK-10 renal,45.2 µM
same,TGI,TK-10 renal,> 100 µM
same,GI50,CCRF-CEM leukemia,22.5 µM
same,TGI,CCRF-CEM leukemia,88.9 µM
same,GI50,NCI-H460 lung,13.4 µM
same,TGI,NCI-H460 lung,38.8 µM
same,GI50,OVCAR-3 ovarian,24 µM
same,TGI,OVCAR-3 ovarian,94.7 µM
same,GI50,SF-539 CNS,24.6 µM
same,TGI,SF-539 CNS,61.3 µM
same,GI50,SK-OV-3 ovarian,32.3 µM
same,TGI,SK-OV-3 ovarian,> 100 µM
same,GI50,HT29 colon,34.1 µM
same,TGI,HT29 colon,> 100 µM
same,GI50,T-47D breast,17.6 µM
same,TGI,T-47D breast,58.5 µM
same,GI50,SN12C renal,29.9 µM
same,TGI,SN12C renal,> 100 µM
same,GI50,MCF7 breast,12.3 µM
same,TGI,MCF7 breast,45.3 µM
same,GI50,K-562 leukemia,29.6 µM
same,TGI,K-562 leukemia,> 100 µM
same,GI50,HCC-2998 colon,17.3 µM
same,TGI,HCC-2998 colon,47.2 µM
same,GI50,DU-145 prostate,28.8 µM
same,TGI,DU-145 prostate,> 100 µM
same,GI50,HOP-62 NSCLC,33.1 µM
same,TGI,HOP-62 NSCLC,> 100 µM
same,GI50,HS 578T breast,20.7 µM
same,TGI,HS 578T breast,49.8 µM
same,GI50,NCI/ADR-RES ovarian,16.3 µM
same,TGI,NCI/ADR-RES ovarian,56.6 µM
same,GI50,SK-MEL-2 melanoma,26.2 µM
same,TGI,SK-MEL-2 melanoma,73.6 µM
same,GI50,CAKI-1 renal,36.4 µM
same,TGI,CAKI-1 renal,> 100 µM
same,GI50,OVCAR-5 ovarian,18.3 µM
same,TGI,OVCAR-5 ovarian,48.8 µM
same,GI50,BT-549 breast,17.2 µM
same,TGI,BT-549 breast,43.2 µM
same,GI50,HCT-15 colon,28.4 µM
same,TGI,HCT-15 colon,> 100 µM
same,GI50,A549 NSCLC,27.1 µM
same,TGI,A549 NSCLC,93.5 µM
same,GI50,SW-620 colon,30.3 µM
same,TGI,SW-620 colon,> 100 µM
same,GI50,UO-31 renal,26.4 µM
same,TGI,UO-31 renal,> 100 µM
same,GI50,ACHN renal,33.1 µM
same,TGI,ACHN renal,> 100 µM
same,GI50,LOX IMVI melanoma,28.5 µM
same,TGI,LOX IMVI melanoma,> 100 µM
same,GI50,HCT-116 colon,24.2 µM
same,TGI,HCT-116 colon,> 100 µM
same,GI50,EKVX NSCLC,25 µM
same,TGI,EKVX NSCLC,89.2 µM
same,GI50,NCI-H522 lung,18.3 µM
same,TGI,NCI-H522 lung,45.9 µM
same,GI50,SR leukemia,24.5 µM
same,TGI,SR leukemia,76.2 µM
same,GI50,KM12 colon,32.3 µM
same,TGI,KM12 colon,> 100 µM
same,GI50,SK-MEL-28 melanoma,24.6 µM
same,TGI,SK-MEL-28 melanoma,73.2 µM
same,GI50,MDA-MB-231 breast,21.4 µM
same,TGI,MDA-MB-231 breast,76.5 µM
same,GI50,SNB-75 CNS,23.9 µM
same,TGI,SNB-75 CNS,66.2 µM
same,GI50,NCI-H23 lung,21.9 µM
same,TGI,NCI-H23 lung,73.9 µM
same,GI50,COLO 205 colon,16 µM
same,TGI,COLO 205 colon,34.3 µM
same,GI50,UACC-257 melanoma,30.5 µM
same,TGI,UACC-257 melanoma,> 100 µM
